We go through 38 compounds from patent US7208505B2, “β3 adrenergic agonists” (Eli Lilly and Company, priority 2001, dated 2007).

As usually defined, the Emax is the maximal effect, on the per cent scale that the assay sets.

The test deals with T1, human β3 adrenergic receptor (Homo sapiens, UniProt P13945).
T1 construct: expressed in transfected cells
The test can be described thus: whole cell receptor coupled c-AMP assay (Emax relative to isoproterenol). The following applies: % intrinsic activity: maximal response divided by isoproterenol maximal response times 100, transfected CHO cells, average of at least 3 runs; for Emax: CHO. In kind it is cell-based. Put shortly: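 Stably transfected CHO DXB-11 cells expressing human β3 receptor incubated 20 min at 37 °C with compound in HBSS/HEPES pH 7.4 containing 1 mM IBMX. cAMP measured by SPA; four-parameter logistic fit, Emax = maximal response as % of isoproterenol maximum.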

T1 sequence (P13945 whole entry): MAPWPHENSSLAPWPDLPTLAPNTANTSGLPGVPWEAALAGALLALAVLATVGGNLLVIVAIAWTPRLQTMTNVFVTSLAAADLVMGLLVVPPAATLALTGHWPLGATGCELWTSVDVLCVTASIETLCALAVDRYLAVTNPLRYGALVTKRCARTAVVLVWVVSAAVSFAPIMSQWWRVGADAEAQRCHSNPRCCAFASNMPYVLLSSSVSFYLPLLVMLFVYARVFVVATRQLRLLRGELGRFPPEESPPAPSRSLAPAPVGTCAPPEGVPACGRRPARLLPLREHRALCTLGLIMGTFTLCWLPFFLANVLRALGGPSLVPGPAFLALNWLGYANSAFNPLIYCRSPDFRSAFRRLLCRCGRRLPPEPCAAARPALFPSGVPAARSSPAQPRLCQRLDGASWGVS

As for `CC(C)(Cc1c[nH]c2c(CCc3ccc(C(N)=O)cc3)cccc12)NC[C@H](O)COc1ccccc1-c1cccs1` [Example 220], the Emax is 81.2 ± 0.6%. Take `CC(C)(Cc1c[nH]c2ccccc12)NC[C@H](O)COc1ccccc1-c1ccc(C(=O)O)s1` [Example 221]: the Emax turned out to be 74.6 ± 3.6%. As to `CC(C)(Cc1c[nH]c2c(CCn3cncn3)cccc12)NC[C@H](O)COc1ccccc1-c1cccs1` [Example 222], the Emax was 81.2 ± 0.9%.

With `CC(C)(Cc1c[nH]c2c(OCC(=O)O)cccc12)NC[C@H](O)COc1ccccc1-c1ccon1` [Example 223], the Emax turned out to be 56.1 ± 2.8%. On to `CC(C)(Cc1c[nH]c2c(OCC(=O)O)cccc12)NC[C@H](O)COc1ccccc1-c1cccs1` [Example 224], for which the “Emax (%) ± SEM” value is reported as 94.3 ± 4.6%. Same read-out and setting: the value for `CC(C)(Cc1c[nH]c2c(OCC(=O)[O-])cccc12)NC[C@H](O)COc1ccccc1-c1cccs1.[Na+]` [Example 225] was 78.1 ± 4.6%; that for `CC(C)(Cc1c[nH]c2c(OCC(=O)O)cccc12)NC[C@H](O)COc1ccccc1-c1cccs1.Cl` [Example 226] was 70.3 ± 5.7%.

In turn, `CC(C)(Cc1c[nH]c2c(/C=C/C(=O)O)cccc12)NC[C@H](O)COc1ccccc1-c1cccs1` [Example 227] gave an Emax of 87.5 ± 7.5%. The same measure, in the same setting: to `CC(C)(Cc1c[nH]c2c(CCC(=O)O)cccc12)NC[C@H](O)COc1ccccc1-c1cccs1` [Example 228] belongs 79.5 ± 0.6%. On the same count and under the same terms, the value for `CC(C)(Cc1c[nH]c2c(OCc3nnn[nH]3)cccc12)NC[C@H](O)COc1ccccc1-c1cccs1` [Example 229] was 83 ± 2.5%; that for `CC(C)(Cc1c[nH]c2c(/C=C/c3nnn[nH]3)cccc12)NC[C@H](O)COc1ccccc1-c1cccs1` [Example 230] was 81.3 ± 2.4%; that for `CC(C)(Cc1c[nH]c2c(OCC3=NCCS3)cccc12)NC[C@H](O)COc1ccccc1-c1cccs1` [Example 231] was 85 ± 4.9%. The compound `CC(C)(Cc1c[nH]c2c(CCc3nnn[nH]3)cccc12)NC[C@H](O)COc1ccccc1-c1cccs1` [Example 232] displayed an Emax of 79.5 ± 1.7%. The same measure, in the same setting: to `CC(C)(Cc1c[nH]c2c(OCC(=O)O)cccc12)NC[C@H](O)COc1ccccc1-c1ccno1` [Example 233] belongs 52.4 ± 6%; to `CC(C)(Cc1c[nH]c2c(OCC(=O)O)cccc12)NC[C@H](O)COc1ccccc1-c1nccs1` [Example 234], 66.4 ± 6.4%; to `C[C@H](Cn1ccc2c(OCC(=O)O)cccc21)NC[C@H](O)COc1ccccc1-c1ccns1` [Example 235], 76.7 ± 4.4%.

As to `CC(C)(Cc1c[nH]c2cc(OCC(=O)O)ccc12)NC[C@H](O)COc1ccccc1-c1cccs1` [Example 236], the Emax was determined as 88.4 ± 3.9%.

With `CC(C)(Cc1c[nH]c2ccc(OCC(=O)O)cc12)NC[C@H](O)COc1ccccc1-c1cccs1` [Example 237], the Emax came out at 73.9 ± 2.9%.

Regarding `CC(C)(Cc1c[nH]c2cccc(C(=O)O)c12)NC[C@H](O)COc1ccccc1-c1cccs1` [Example 238], the maximal response (Emax) is less than 10%. On the same count and under the same terms, the value for `CC(C)(Cc1c[nH]c2ccc(C(=O)O)cc12)NC[C@H](O)COc1ccccc1-c1cccs1` [Example 239] was 69.6 ± 3.5%; that for `CC(C)(Cc1c[nH]c2cc(C(=O)O)ccc12)NC[C@H](O)COc1ccccc1-c1cccs1` [Example 240] was 78.7 ± 2.4%; that for `CC(C)(Cc1c[nH]c2c(C(=O)O)cccc12)NC[C@H](O)COc1ccccc1-c1cccs1` [Example 241] was 70.1 ± 0.6%.

Regarding `C[C@H](Cn1ccc2c(C(=O)O)cccc21)NC[C@H](O)COc1ccccc1-c1cccs1` [Example 242], the Emax stood at 59.6 ± 2.8%. In turn, `C[C@H](Cn1ccc2cc(C(=O)O)ccc21)NC[C@H](O)COc1ccccc1-c1cccs1` [Example 243] yielded a maximal effect (Emax) of 48.4 ± 2.5%. The same measure, in the same setting: to `CC(C)(Cc1c[nH]c2c(Oc3ccc(C(=O)O)cn3)cccc12)NC[C@H](O)COc1ccccc1-c1ccon1` [Example 244] belongs 77 ± 2.1%. For the compound `CC(C)(Cc1c[nH]c2c(Oc3ccc(C(N)=O)cn3)cccc12)NC[C@H](O)COc1ccccc1-c1ccon1` [Example 245], the Emax turned out to be 63.3 ± 3%. On the same count and under the same terms, to `CC(C)(Cc1c[nH]c2c(-c3ccc(C(=O)O)cc3)cccc12)NC[C@H](O)COc1ccccc1-c1cccs1` [Example 246] belongs 79.2 ± 3.4%; to `CC(C)(Cc1c[nH]c2c(-c3ccc(C(=O)O)cc3)cccc12)NC[C@H](O)COc1ccccc1-c1ccon1` [Example 247], 54.6 ± 2.4%; to `CC(C)(Cc1c[nH]c2c(-c3cccc(C(=O)O)c3)cccc12)NC[C@H](O)COc1ccccc1-c1cccs1` [Example 248], 84.1 ± 1.8%.

Compound `CC(C)(Cc1c[nH]c2c(-c3cccc(C(=O)O)c3)cccc12)NC[C@H](O)COc1ccccc1-c1ccon1` [Example 249] gave an Emax of 68.8 ± 7.8%. The same measure, in the same setting: the value for `CC(C)(Cc1c[nH]c2c(-c3ccc(C(=O)O)s3)cccc12)NC[C@H](O)COc1ccccc1-c1cccs1` [Example 250] was 92.5 ± 5.1%; that for `CC(C)(Cc1c[nH]c2c(CCc3ccc(-c4nnn[nH]4)cc3)cccc12)NC[C@H](O)COc1ccccc1-c1cccs1` [Example 251] was 86.3 ± 3.4%; that for `CC(C)(Cc1c[nH]c2cc(/C=C/c3nnn[nH]3)ccc12)NC[C@H](O)COc1ccccc1-c1cccs1` [Example 252] was 82.3 ± 4%. The same measure, in the same setting: to `CC(C)(Cc1c[nH]c2c(CCc3cnccn3)cccc12)NC[C@H](O)COc1ccccc1-c1cccs1` [Example 253] belongs 81.6 ± 4%; to `CC(C)(Cc1c[nH]c2c(CCc3ccc(S(N)(=O)=O)cc3)cccc12)NC[C@H](O)COc1ccccc1-c1cccs1` [Example 254], 80.9 ± 4.9%. On the same count and under the same terms, the value for `CC(C)(Cc1c[nH]c2cc(CCc3nnn[nH]3)ccc12)NC[C@H](O)COc1ccccc1-c1cccs1` [Example 255] was 83.9 ± 3.2%; that for `CC(C)(Cc1c[nH]c2c(OCC#N)cccc12)NC[C@H](O)COc1ccccc1-n1cccc1` [Example 256] was 71.4 ± 2.7%; that for `CC(C)(Cc1c[nH]c2cccc(C(N)=O)c12)NC[C@H](O)COc1ccccc1-c1cccs1` [Example 257] was 81.8 ± 8.5%.
